Assay results: patent US10183058B2, “Method of preventing or reducing the progression of prostate cancer” (Nymox Corporation, priority 2016, dated 2019)
Ends that are not written are not given here.

System: prostate cancer
Test: Clinical studies in men with BPH given SEQ ID NO. 66 by intraprostatic injection; incidence of clinically or biopsy detected prostate cancer
Assay type: in vivo, human (men)
Conditions: 2.5 mg intraprostatic injection; for Incidence of cancer (Gleason Grade >= 7): follow-up up to 6.5 years, compared to known expected incidence of 5-6%
Experimental: In a series of clinical studies undertaken between 2009 and 2016 a total of 628 men with benign prostatic hyperplasia (BPH) received SEQ ID NO. 66 (Ile-Asp-Gln-Gln-Val-Leu-Ser-Arg-Ile-Lys-Leu-Glu-Ile-Lys-Arg-Cys-Leu), 2.5 mg given by intraprostatic injection into the transition zone of the prostate to treat the symptoms of BPH and were subsequently followed clinically and by laboratory testing. After intervals up to 6.5 years after injection, all available patients were followed urologically at specialized clinics with investigation of BPH symptoms and events of disease progression and safety assessments. All cases of clinically or biopsy detected prostate cancer were documented. The incidence of new biopsy or surgically proven prostate cancer after 12 months and overall was compared to the incidence of detected prostate cancer in large long-term clinical trials in the medical literature. Although a) the treatments were for BPH; b) the injections were directed at the central part of the prostate where cancer is less common; and c) the injections consisted of only a single or two injection(s) of SEQ ID NO. […]
In a series of clinical studies undertaken between 2009 and 2016, a total of 816 men with benign prostatic hyperplasia (BPH) received SEQ ID NO. […] All cases of clinically or biopsy detected prostate cancer were documented. The incidence of new biopsy or surgically proven prostate cancer after 12 months and overall was compared to the incidence of detected prostate cancer in the patients receiving the sterile saline solution (control). […]
In a series of clinical studies undertaken between 2009 and 2016 a total of 628 men with benign prostatic hyperplasia (BPH) received SEQ ID NO. […] All cases of clinically or biopsy detected prostate cancer were documented. The incidence of new biopsy or surgically proven prostate cancer of Gleason Grade>=7 was compared to the incidence of detected prostate cancer in large long-term clinical trials in the medical literature. […]

Sequence: IDQQVLSRIKLEIKRCL [SEQ ID NO: 66]
- incidence of prostate cancer (after 12 months and overall) (compared to known expected incidence of 2-25%): 0-1.3%
- Incidence of cancer (Gleason Grade >= 7): <0.3%
- Incidence of cancer (Gleason Grade >= 7) (listed as SEQ ID NO. 66): < 0.3%
